# Measured values published in patent US4348393A, “N-Aryl oxazolidinones, oxazolidinethiones, pyrrolidinones, pyrrolidines and thiazolidinones” (Delalande S.A., priority 1978, dated 1982).
# Key:
# [1] = system: ptosis observed one hour after reserpine; experiment: Test B: antagonism of reserpine-induced ptosis in mice; assay type: in vivo; settings: Mus musculus, 1 h, po, antagonism of ptosis one hour after reserpine 2 mg/kg intravenous, read-out: Test B ED 50
# Description: Test B: Antagonism with respect to the ptosis observed one hour after an intravenous injection (2 mg/kg) of reserpine given to mice, following the protocol described by C.
# [2] = system: generalized trembling caused by dl-5-hydroxytryptophane; experiment: Test A: potentiation in mice of generalized trembling caused by dl-5-hydroxytryptophane; assay type: in vivo; settings: po, mice, potentiation of trembling by dl-5-hydroxytryptophane 200 mg/kg interperitoneal; for ED50: Mus musculus, read-out: Test A ED 50
# Description: Test A: Potentiation in mice of generalized trembling caused by an interperitoneal injection (200 mg/kg) of dl-5-hydroxytryptophane, following the protocol described by C. GOURET and G. RAYNAUD in J. Pharmacol. (Paris), (1974), 5, 231.
Structure (SMILES),ED50 [1] [mg/kg],ED50 [2] [mg/kg],Test A ED 50 [2] [mg/kg]
C=CCOCC1CN(c2ccc(OCc3cccc([N+](=O)[O-])c3)cc2)C(=O)O1 (stereo not shown) [compound 71],0.8,1,
CCOCC1CN(c2ccc(OCc3ccccc3)cc2)C(=O)O1 (stereo not shown) [compound 154],17.5,19,
CCCCCCCCC(=O)OCC1CN(c2ccc(OCc3cc(Cl)cc([N+](=O)[O-])c3)cc2)C(=O)O1 (stereo not shown) [compound 138],6,,
CNCC1CN(c2ccc(OCc3ccc(F)cc3)cc2)C(=O)O1 (stereo not shown) [compound 175],9.6,5.8,
CCCOCC1CN(c2ccc(OCc3cccc(Cl)c3)cc2)C(=O)O1 (stereo not shown) [compound 153],4,3.8,
CCC(=O)OCC1CN(c2ccc(OCc3cccc(F)c3)cc2)C(=O)O1 (stereo not shown) [compound 44],,6.2,
CC(=O)OCC1CN(c2ccc(OCC3CCCCC3)cc2)C(=O)O1 (stereo not shown) [compound 21],3.5,2.1,
O=C(OCC1CN(c2ccc(OCc3cccc([N+](=O)[O-])c3)cc2)C(=O)O1)C1CCCCC1 (stereo not shown) [compound 41],4.5,6.2,
CC(=O)OCC1CN(c2ccc(OCc3cccc([N+](=O)[O-])c3)cc2)C(=S)O1 (stereo not shown) [compound 117],1.5,1.2,
CCCOCC1CN(c2ccc(OCc3cccc([N+](=O)[O-])c3)cc2)C(=O)O1 (stereo not shown) [compound 70],0.6,0.8,
COCC1CN(c2ccc(OCc3ccc(F)c(C#N)c3)cc2)C(=O)O1 (stereo not shown) [compound 162],1.55,0.54,
CCCCOc1ccc(N2CC(COC(C)=O)OC2=O)cc1 (stereo not shown) [compound 11],6.2,4.2,
CCCCOc1ccc(N2CC(CN(C)C)OC2=O)cc1 (stereo not shown) [compound 75],,8,
CC(C)(C)C(=O)OCC1CN(c2ccc(OCc3cccc([N+](=O)[O-])c3)cc2)C(=O)O1 (stereo not shown) [compound 40],1.5,6.2,
N#CCOc1ccc(N2CC(CO)OC2=S)cc1 (stereo not shown) [compound 92],50,30,
CCC(=O)OCC1CN(c2ccc(OCc3cc(Cl)cc([N+](=O)[O-])c3)cc2)C(=O)O1 (stereo not shown) [compound 137],6,,
COCC1CN(c2ccc(OCc3ccc(Cl)cc3)cc2)C(=O)O1 (stereo not shown) [compound 68],6.2,5,
CCC(=O)OCC1CN(c2ccc(OCc3cccc(Cl)c3)cc2)C(=O)O1 (stereo not shown) [compound 31],3.6,6.5,
COCOCC1CN(c2ccc(OCc3cccc([N+](=O)[O-])c3)cc2)C(=O)O1 (stereo not shown) [compound 73],0.8,0.6,
COCC1CN(c2ccc(OCc3ccc([N+](=O)[O-])cc3)cc2)C(=O)O1 (stereo not shown) [compound 165],4.7,6.8,

Structure (SMILES),ED50 [1] [mg/kg],ED50 [2] [mg/kg],Test A ED 50 [2] [mg/kg]
C#CCOCC1CN(c2ccc(OCc3cccc([N+](=O)[O-])c3)cc2)C(=O)O1 (stereo not shown) [compound 72],1,0.8,
CCC(=O)OCC1CN(c2ccc(OCc3ccc(F)cc3)cc2)C(=O)O1 (stereo not shown) [compound 135],4.2,,
CC(=O)OCC1CN(c2ccc(OCc3cccc(Cl)c3)cc2)C(=O)O1 (stereo not shown) [compound 30],4.5,4.2,
CCCOCC1CN(c2ccc(OCc3cccc(C#N)c3)cc2)C(=O)O1 (stereo not shown) [compound 160],4.2,,
CCCCOc1ccc(N2CC(CNC)OC2=O)cc1 (stereo not shown) [compound 74],6.2,4,
CNCC1CN(c2ccc(OCCC(C)C)cc2)C(=O)O1 (stereo not shown) [compound 79],2,6.2,
CCCCCCCCC(=O)OCC1CN(c2ccc(OCc3cccc(F)c3)cc2)C(=O)O1 (stereo not shown) [compound 131],31,12,
COCC1CN(c2ccc(/C=C\c3cccc([N+](=O)[O-])c3)cc2)C(=O)O1 (stereo not shown) [compound 194],5.8,6.4,
N#CCCOc1ccc(N2CC(COC(=O)c3ccccc3)OC2=O)cc1 (stereo not shown) [compound 10],5.8,2.4,
CCCCC(=O)OCC1CN(c2ccc(OCC3CCCC3)cc2)C(=O)O1 (stereo not shown) [compound 16],1.5,1.7,
O=C(OCC1CN(c2ccc(OCC3CCCC3)cc2)C(=O)O1)c1ccccc1 (stereo not shown) [compound 20],3.7,8.8,
CCCCOc1ccc(N2CC(COCC)OC2=O)cc1 (stereo not shown) [compound 109],1,10,
OCC1CN(c2ccc(OCC3CCCC3)cc2)C(=S)O1 (stereo not shown) [compound 100],,6.2,
CC(C)C(=O)OCC1CN(c2ccc(OCCC#N)cc2)C(=O)O1 (stereo not shown) [compound 5],9.5,4.7,
CC(=O)OCC1CN(c2ccc(OCc3cccc(C#N)c3)cc2)C(=S)O1 (stereo not shown) [compound 120],3,,
COCC1CN(c2ccc(OCc3ccccc3)cc2)C(=O)O1 (stereo not shown) [compound 57],9,7.8,
COCC1CN(c2ccc(OCCC(C)C)cc2)C(=O)O1 (stereo not shown) [compound 111],,0.28,
CNCC1CN(c2ccc(OCC3CCCCC3)cc2)C(=O)O1 (stereo not shown) [compound 173],4.7,,
CCCCCOc1ccc(N2CC(COC)OC2=O)cc1 (stereo not shown) [compound 148],,2.2,
CN(C)CC1CN(c2ccc(OCC3CCCC3)cc2)C(=O)O1 (stereo not shown) [compound 78],,6.2,

Structure (SMILES),ED50 [1] [mg/kg],ED50 [2] [mg/kg],Test A ED 50 [2] [mg/kg]
COCC1CN(c2ccc(OCCCC#N)cc2)C(=O)O1 (stereo not shown) [compound 110],,0.3,
OCC1CN(c2ccc(OCC3CCOCC3)cc2)C(=S)O1 (stereo not shown) [compound 119],8,,
CC(C)OCC1CN(c2ccc(OCc3cccc(Cl)c3)cc2)C(=O)O1 (stereo not shown) [compound 60],,30,
CCCCCCOc1ccc(N2CC(COC)OC2=O)cc1 (stereo not shown) [compound 149],,6,
CC(C)(C)C(=O)OCC1CN(c2ccc(OCC3CCCCC3)cc2)C(=O)O1 (stereo not shown) [compound 105],,6.2,
CC(C)CC(=O)OCC1CN(c2ccc(OCc3cccc([N+](=O)[O-])c3)cc2)C(=O)O1 (stereo not shown) [compound 134],3.9,,
CCC(=O)OCC1CN(c2ccc(OCc3cccc(F)c3)cc2)C(=O)O1 (stereo not shown) [compound 106],,,6.2
CCCCCCCCC(=O)OCC1CN(c2ccc(OCCC#N)cc2)C(=O)O1 (stereo not shown) [compound 9],25,,
CC(C)(C)C(=O)OCC1CN(c2ccc(OCCC#N)cc2)C(=O)O1 (stereo not shown) [compound 7],7.4,,
CCCCCCCCC(=O)OCC1CN(c2ccc(OCc3ccc(F)cc3)cc2)C(=O)O1 (stereo not shown) [compound 136],31,,
COCC1CN(c2ccc(OCC3=CCCCC3)cc2)C(=O)O1 (stereo not shown) [compound 56],3,,
CCCCC(=O)OCC1CN(c2ccc(OCC3CCCCC3)cc2)C(=O)O1 (stereo not shown) [compound 104],,6.2,
N#CCCOc1ccc(N2CC(CO)OC2=S)cc1 (stereo not shown) [compound 102],,6.2,
OCC1CN(c2ccc(OCC3=CCCCC3)cc2)C(=S)O1 (stereo not shown) [compound 101],,18,
CC(C)C(=O)OCC1CN(c2ccc(OCc3cccc(F)c3)cc2)C(=O)O1 (stereo not shown) [compound 107],12,,
CCC(=O)OCC1CN(c2ccc(OCCC(C)C)cc2)C(=O)O1 (stereo not shown) [compound 124],0.6,,
COCC1CN(c2ccc(OCc3ccc(F)cc3)cc2)C(=O)O1 (stereo not shown) [compound 64],4.5,,
NCC1CN(c2ccc(OCC3CCCCC3)cc2)C(=O)O1 (stereo not shown) [compound 172],8.6,,
CCC(=O)OCC1CN(c2ccc(OCC3CCCCC3)cc2)C(=O)O1 (stereo not shown) [compound 22],3,,
CCCCC(=O)OCC1CN(c2ccc(OCc3cccc(F)c3)cc2)C(=O)O1 (stereo not shown) [compound 108],,5.6,
